Laboratory results reported in patent US4439606A, “Antiatherosclerotic 1-piperazinecarbonyl compounds” (American Cyanamid Company, priority 1982, dated 1984).

Key:
[1] = target: T1, fatty acyl CoA:-cholesterol acyl transferase (ACAT) (Rattus norvegicus, UniProt O70536); assay: Inhibition of enzymatic esterification of cholesterol (ACAT inhibition), rat adrenal supernatant; type: biochemical; settings: final concentration 5.2 μg./ml., 37° C., 30 minutes
T1 construct: The supernatant, containing the microsomal fraction, served as the source of the cholesterol-esterifying enzyme; from tissue; host or cells: rat adrenals, 1000 x g supernatant containing the microsomal fraction
T1 sequence (O70536 1-545): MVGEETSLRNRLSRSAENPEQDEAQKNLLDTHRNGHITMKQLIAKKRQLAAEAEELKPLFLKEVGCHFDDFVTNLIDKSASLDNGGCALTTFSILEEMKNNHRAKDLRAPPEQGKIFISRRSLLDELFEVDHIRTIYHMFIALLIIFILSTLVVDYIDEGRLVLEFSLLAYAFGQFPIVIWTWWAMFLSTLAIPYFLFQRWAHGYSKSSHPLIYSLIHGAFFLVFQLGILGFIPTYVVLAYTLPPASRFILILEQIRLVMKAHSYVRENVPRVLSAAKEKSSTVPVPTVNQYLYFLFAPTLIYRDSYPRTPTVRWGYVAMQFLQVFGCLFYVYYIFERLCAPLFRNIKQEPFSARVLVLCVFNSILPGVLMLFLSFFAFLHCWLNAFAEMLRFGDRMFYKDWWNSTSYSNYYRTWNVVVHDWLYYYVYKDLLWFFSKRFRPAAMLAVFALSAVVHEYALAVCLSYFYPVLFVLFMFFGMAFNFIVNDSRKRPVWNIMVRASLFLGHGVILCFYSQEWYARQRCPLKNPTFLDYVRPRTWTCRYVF
Protocol: The compounds of the present invention were tested for their ability to inhibit the enzymatic esterification of cholesterol according to the procedure of Hashimoto, et al., Life Sci., 12(Part II), 1-12 (1973).
Rat adrenals were homogenized in 0.2 M monobasic potassium phosphate buffer, pH 7.4, and centrifuged at 1000 times gravity for 15 minutes at 5° C. The supernatant, containing the microsomal fraction, served as the source of the cholesterol-esterifying enzyme, fatty acyl CoA:-cholesterol acyl transferase (ACAT). A mixture comprising 50 parts of adrenal supernatant, 10 parts of bovine serum albumin (50 mg./ml.), 3 parts of test compound (final concentration 5.2 μg./ml.) and 500 parts of buffer were preincubated at 37° C. for 10 minutes, following which 20 parts of oleoyl […] were added and the final mixture was incubated at 37° C. for 30 minutes. A control mixture, omitting the test compound, was prepared and treated in the same manner. The lipids from the incubation mixture were extracted into an organic solvent and separated by thin-layer chromatography. The cholesterol ester fraction was counted in a scintillation counter. A statistically significant inhibition of the ACAT enzyme is the criterion for activity.

aortic sterol content = assay: Decrease of aortic sterol content without effecting serum sterol in cholesterol-fed cockerels; type: in vivo, Day-old Cockerels; design: key: Active: Compounds which statistically decrease the aortic sterol content without having an effect on serum sterol are considered to be active; settings: 525 mg. test compound and 20 g. cholesterol per kg. of diet, 14 days
Protocol: The compounds were further tested for their ability to decrease aortic sterol content without effecting serum sterol.
Day-old Cockerels were placed on diets consisting of pullet starter mash supplemented with either 20 g. cholesterol (control group) or 20 g. cholesterol and 525 mg. test compound (drug-treated group) per kg. of diet.
For the control diet, 20 g. of cholesterol was dissolved in 200 ml. of chloroform, mixed into one kg. of pullet starter mash and then the choloroform was removed by evaporation.
For the drug-treatment group, 525 mg. of the test compound was dissolved in 100 ml. of chloroform, mixed into a diet prepared as described above and then the chloroform was evaporated.
The cockerels were housed three per cage and given water and their respective diet ad libitum for 14 days. Blood was collected by cardiac puncture and the serum was saponified [Trinder, P., Analyst, 77, 321 (1952)] and extracted and the cholesterol content determinted [Zlatkis, A., et al., J. Lab Clin Med., 41 486 (1953)]. The aortae were removed, cleaned of adventitial tissue and the sterol content determined according to the above procedures. Compounds which statistically decrease the aortic sterol content without having an effect on serum sterol are considered to be active.

SMILES	inhibition at 5.2 µg/mL [1] [%]	Result (decrease of aortic sterol content without effect on serum sterol) (aortic sterol content)
O=C(Cc1ccc(Cl)c(Cl)c1)N1CCN(c2cnccn2)CC1 [1-(3,4-Dichlorophenylacetyl)-4-(2-pyrazinyl)piperazine]	38.3	Active
O=C(Cc1ccc([N+](=O)[O-])cc1)N1CCN(c2cnccn2)CC1 [1-(p-Nitrophenylacetyl)-4-(2-pyrazinyl)piperazine]	36.4	Active
O=C(Cc1ccccc1)N1CCN(c2ccccc2)CC1 [1-phenyl-4-phenylacetylpiperazine, 1-Phenyl-4-phenylacetylpiperazine]	34.6	Active
